For orientation: Ki means a dissociation constant, usually derived from enzyme kinetics or from competition with a known ligand. A lower Ki goes with tighter binding.

The results in this text go back to US9296741B2, “Bromodomain inhibitors” (priority 2012, dated 2016).

SMILES strings stand for the structures. Where two headings read alike, the source gives them in different places.

Data set [1] is described as follows: Human liver microsome stability assay. The data set is classed as in vitro ADME. The following applies: human, microsomes, pH 7.4; for half-life at 0.5 μM: both sexes.
The test system of data set [2] is breast cancer cell line MX-1. Nature of the data set: MX-1 cell line proliferation assay. The data set is classed as cell-based, human. The following applies: MX-1 cells, 3-day proliferation, Cell Titer Glo, read-out: Cellular proliferation: EC50.
The nature of data set [3]: Mouse liver microsome stability assay. The format is in vitro ADME. The following applies: microsomes, pH 7.4; for half-life at 0.5 μM: male, CD1, mouse. On the technique in general: Liver microsomes are vesicles of endoplasmic reticulum, rich in cytochrome P450 enzymes.
The nature of data set [4]: Rat liver microsome stability assay. The data set is classed as in vitro ADME. The following applies: for half-life at 0.5 μM: rat liver microsomes (male Sprague-Dawley), 0.5 μM test compound, 0.25 mg/mL microsomal protein, pH 7.4, 37° C., read-out: Stability in rat liver microsomes (t1/2 in minutes).
Data set [5] deals with human BRD4 first bromodomain (BDI_K57-E168) (Homo sapiens (Human), UniProt O60885). Nature of the data set: TR-FRET bromodomain binding assay, BRD4 first bromodomain.
Data set [6] addresses human BRD4 second bromodomain (BDII_E352-M457) (Homo sapiens (Human), UniProt O60885). Nature of the data set: TR-FRET bromodomain binding assay, BRD4 second bromodomain.

Turning to `Cn1cc(-c2cc(S(=O)(=O)N3CCCC3)ccc2OCC2CC2(F)F)c2cc[nH]c2c1=O` (stereo not drawn) [Example 307, 4-{2-[(2,2-difluorocyclopropyl)methoxy]-5-(pyrrolidin-1-ylsulfonyl)phenyl}-6-methyl-1,6-dihydro-7H-pyrrolo[2,3-c]pyridin-7-one], the figures for the half-life at 0.5 μM in data set [1], in data set [3] and in data set [4] were 3 min, 2 min and 3 min, respectively. The EC50 in data set [2] (Homo sapiens, MX1, 72 h) was 122 nM. For the same compound, the values for the Ki in data set [5] and in data set [6] were 2.4 nM and 2.9 nM, respectively.
As to `CCS(=O)(=O)c1ccc(OC2CCN(C(=O)OC(C)(C)C)CC2)c(-c2cn(C)c(=O)c3[nH]ccc23)c1` [Example 312, tert-butyl 4-[4-(ethylsulfonyl)-2-(6-methyl-7-oxo-6,7-dihydro-1H-pyrrolo[2,3-c]pyridin-4-yl)phenoxy]piperidine-1-carboxylate], the half-life at 0.5 μM in data set [1] was 56 min; in data set [3], 9 min; in data set [4], 32 min. In addition, in data set [2] (Homo sapiens, MX1, 72 h), the EC50 was determined as 67.5 nM. The Ki in data set [5] came out at 14.1 nM; in data set [6], 19 nM.
For the compound `Cn1cc(-c2cc(NS(C)(=O)=O)ccc2Oc2ccccc2)c2cc(C(N)=O)[nH]c2c1=O` [Example 73, 6-methyl-4-{5-[(methylsulfonyl)amino]-2-phenoxyphenyl}-7-oxo-6,7-dihydro-1H-pyrrolo[2,3-c]pyridine-2-carboxamide], the half-life at 0.5 μM in data set [1] came to 36 min; in data set [3], 31 min; in data set [4] it was 2 min. Moreover, the EC50 in data set [2] (Homo sapiens, MX1, 72 h) amounted to 20.7 nM. In addition, the Ki in data set [5] came out at 0.98 nM; in data set [6], 0.5 nM.
For `Cn1cc(-c2cc(NS(=O)(=O)CCF)ccc2OC2CCOC2)c2cc[nH]c2c1=O` (stereo not drawn) [Example 91, 2-fluoro-N-[3-(6-methyl-7-oxo-6,7-dihydro-1H-pyrrolo[2,3-c]pyridin-4-yl)-4-(tetrahydrofuran-3-yloxy)phenyl]ethanesulfonamide], the half-life at 0.5 μM in data set [1] is 17 min; in data set [3] it was 7 min; in data set [4] it was 7 min. In data set [2] (Homo sapiens, MX1, 72 h), the EC50 is 240 nM. Also, the Ki in data set [5] worked out at 12.2 nM; in data set [6] it was 87.4 nM.
For `CC(COC(C)(C)C)Oc1ccc(S(C)(=O)=O)cc1-c1cn(C)c(=O)c2[nH]ccc12` (stereo not drawn) [Example 229, 4-{2-[(1-tert-butoxypropan-2-yl)oxy]-5-(methylsulfonyl)phenyl}-6-methyl-1,6-dihydro-7H-pyrrolo[2,3-c]pyridin-7-one], the figures for the half-life at 0.5 μM in data set [1], in data set [3] and in data set [4] were 25 min, 9 min and 33 min, respectively. In data set [2] (Homo sapiens, MX1, 72 h), the EC50 was 288 nM. The inhibition constant (Ki) in data set [5] was found to be 34.3 nM; in data set [6] it was 61.3 nM.
With `Cn1cc(-c2cc(S(C)(=O)=O)ccc2OCC2(F)COC2)c2cc[nH]c2c1=O` [Example 206, 4-{2-[(3-fluorooxetan-3-yl)methoxy]-5-(methylsulfonyl)phenyl}-6-methyl-1,6-dihydro-7H-pyrrolo[2,3-c]pyridin-7-one], the results for the half-life at 0.5 μM in data set [1], in data set [3] and in data set [4] were greater than 120 min, 95 min and 118 min, respectively. For the same compound, in data set [2] (Homo sapiens, MX1, 72 h), the EC50 worked out at 77.7 nM. In addition, the Ki amounted to 11.6 nM in data set [5] and 22.8 nM in data set [6].
Take `CCS(=O)(=O)c1ccc(Oc2cccc(CO)c2)c(-c2cn(C)c(=O)c3[nH]ccc23)c1` [Example 317, 4-{5-(ethylsulfonyl)-2-[3-(hydroxymethyl)phenoxy]phenyl}-6-methyl-1,6-dihydro-7H-pyrrolo[2,3-c]pyridin-7-one]: the half-life at 0.5 μM in data set [1] was 88 min; in data set [3], 83 min; in data set [4] it was 115 min. In data set [2] (Homo sapiens, MX1, 72 h), the EC50 turned out to be 16.8 nM. Further, the Ki is 6.7 nM in data set [5] and 3.6 nM in data set [6].
With `Cn1cc(-c2cc(S(C)(=O)=O)ccc2OC[C@@H]2CCC(=O)N2)c2cc[nH]c2c1=O` [Example 228, 6-methyl-4-[5-(methylsulfonyl)-2-{[(2S)-5-oxopyrrolidin-2-yl]methoxy}phenyl]-1,6-dihydro-7H-pyrrolo[2,3-c]pyridin-7-one], the half-life at 0.5 μM in data set [1] is greater than 120 min; in data set [3], greater than 120 min; in data set [4], 107 min. In addition, the EC50 in data set [2] (Homo sapiens, MX1, 72 h) is greater than 3000 nM. The Ki was found to be 39 nM in data set [5] and 108 nM in data set [6].
In the case of `CCS(=O)(=O)Nc1ccc(Oc2ccc(F)cc2F)c(-c2cn(C)c(=O)c3[nH]c(CO)cc23)c1` [Example 337, N-{4-(2,4-difluorophenoxy)-3-[2-(hydroxymethyl)-6-methyl-7-oxo-6,7-dihydro-1H-pyrrolo[2,3-c]pyridin-4-yl]phenyl}ethanesulfonamide], the half-life at 0.5 μM in data set [1], in data set [3] and in data set [4] was greater than 120 min throughout. The EC50 in data set [2] (Homo sapiens, MX1, 72 h) stood at 15.8 nM. The Ki in data set [5] stood at 4.3 nM; in data set [6], 4.2 nM.
As to `Cc1ccc(F)c(Oc2ccc(S(C)(=O)=O)cc2-c2cn(C)c(=O)c3[nH]ccc23)c1` [Example 186, 4-[2-(2-fluoro-5-methylphenoxy)-5-(methylsulfonyl)phenyl]-6-methyl-1,6-dihydro-7H-pyrrolo[2,3-c]pyridin-7-one], the half-life at 0.5 μM in data set [1] was 9 min; in data set [3], 8 min; in data set [4] it was 3 min. The EC50 in data set [2] (Homo sapiens, MX1, 72 h) amounted to 48.4 nM. The Ki came out at 10.1 nM in data set [5] and 3.3 nM in data set [6].
`CCS(=O)(=O)c1ccc(O[C@H]2CC[C@@](C)(O)CC2)c(-c2cn(C)c(=O)c3[nH]ccc23)c1` [Example 211, 4-{5-(ethylsulfonyl)-2-[(cis-4-hydroxy-4-methylcyclohexyl)oxy]phenyl}-6-methyl-1,6-dihydro-7H-pyrrolo[2,3-c]pyridin-7-one]: the “Stability in human liver microsomes (t1/2 in minutes)” value in data set [1] amounted to 65 min. In addition, in data set [2], the EC50 was found to be 11.9 nM. Moreover, the “Stability in mouse liver microsomes (t1/2 in minutes)” value in data set [3] (mouse) was 63 min. The “Stability in rat liver microsomes (t1/2 in minutes)” value in data set [4] (rat, microsomes, pH 7.4) was determined as 48 min. Moreover, the Ki in data set [5] was determined as 1.4 nM; in data set [6], 2.1 nM.
As for `Cn1cc(-c2ccc(OCC3CC3)c(-c3cn(C)c(=O)c4[nH]ccc34)c2)cn1` [Example 318, 4-[2-(cyclopropylmethoxy)-5-(1-methyl-1H-pyrazol-4-yl)phenyl]-6-methyl-1,6-dihydro-7H-pyrrolo[2,3-c]pyridin-7-one], the values for the half-life at 0.5 μM in data set [1], in data set [3] and in data set [4] were 35 min, 13 min and 24 min, respectively. The EC50 in data set [2] (Homo sapiens, MX1, 72 h) was greater than 3000 nM. The Ki in data set [5] was found to be 346 nM; in data set [6] it was 625 nM.
In the case of `Cn1cc(-c2cc(S(C)(=O)=O)ccc2Oc2ccccc2CCO)c2cc[nH]c2c1=O` [Example 309, 4-{2-[2-(2-hydroxyethyl)phenoxy]-5-(methylsulfonyl)phenyl}-6-methyl-1,6-dihydro-7H-pyrrolo[2,3-c]pyridin-7-one], the half-life at 0.5 μM in data set [1], in data set [3] and in data set [4] was greater than 120 min in each case. Moreover, the EC50 in data set [2] (Homo sapiens, MX1, 72 h) was determined as 85.9 nM. Also, the Ki in data set [5] was 30.6 nM; in data set [6] it was 16.9 nM.
For `Cn1cc(-c2cc(S(=O)(=O)N3CCC(O)CC3)ccc2OCC2CC2)c2cc[nH]c2c1=O` [Example 354, 4-{2-(cyclopropylmethoxy)-5-[(4-hydroxypiperidin-1-yl)sulfonyl]phenyl}-6-methyl-1,6-dihydro-7H-pyrrolo[2,3-c]pyridin-7-one], the half-life at 0.5 μM came to 23 min in data set [1], 24 min in data set [3] and 41 min in data set [4]. In addition, the EC50 in data set [2] (Homo sapiens, MX1, 72 h) was 95.4 nM. The Ki in data set [5] was 66 nM; in data set [6] it was 12.9 nM.
Turning to `Cn1cc(-c2cc(S(=O)(=O)Nc3ccccc3)ccc2OCC2CC2)c2cc[nH]c2c1=O` [Example 313, 4-(cyclopropylmethoxy)-3-(6-methyl-7-oxo-6,7-dihydro-1H-pyrrolo[2,3-c]pyridin-4-yl)-N-phenylbenzenesulfonamide], the half-life at 0.5 μM was determined as 5 min in data set [1], 3 min in data set [3] and 4 min in data set [4]. The EC50 in data set [2] (Homo sapiens, MX1, 72 h) stood at 50.9 nM. Also, the figures for the Ki in data set [5] and in data set [6] were 15.8 nM and 6.1 nM, respectively.
Turning to `Cn1cc(-c2cc(S(=O)(=O)c3ccccc3)ccc2OCC2CC2)c2cc[nH]c2c1=O` [Example 285, 4-[2-(cyclopropylmethoxy)-5-(phenylsulfonyl)phenyl]-6-methyl-1,6-dihydro-7H-pyrrolo[2,3-c]pyridin-7-one], the half-life at 0.5 μM in data set [1] was determined as 19 min; in data set [3] it was 12 min; in data set [4], 10 min. The EC50 in data set [2] (Homo sapiens, MX1, 72 h) came to 111 nM. Besides, the Ki in data set [5] came to 10.8 nM; in data set [6], 7.5 nM.
In the case of `Cn1cc(-c2cc(NS(=O)(=O)CCN3CCOCC3)ccc2Oc2ccc(F)cc2F)c2cc[nH]c2c1=O` [Example 295, N-[4-(2,4-difluorophenoxy)-3-(6-methyl-7-oxo-6,7-dihydro-1H-pyrrolo[2,3-c]pyridin-4-yl)phenyl]-2-(morpholin-4-yl)ethanesulfonamide], the half-life at 0.5 μM in data set [1] was determined as 7 min; in data set [3], 3 min; in data set [4], 15 min. In data set [2] (Homo sapiens, MX1, 72 h), the EC50 worked out at 223 nM. In addition, the inhibitory constant (Ki) in data set [5] came to 27.9 nM; in data set [6], 30.7 nM.
